Results published in article PMC3326594 (Journal of Medicinal Chemistry, 2012).

How the values were obtained:
[1] = biological target: P-gp (Homo sapiens, UniProt P08183); conditions: for LE (ligand efficiency): binding free energy from IC50 per heavy atom, 310 K; for LipE (lipophilic efficiency): from pIC50 and clogP (eq 5)
[2] = test system: hERG potassium channel; conditions: hERG blockers from literature; cited from earlier work
[3] = biological target: P-glycoprotein (P-gp) (Homo sapiens, UniProt P08183); experiment: Inhibition of daunorubicin efflux in multidrug resistant CCRF-CEM vcr 1000 cells; assay type: cell-based
Sequence of P-glycoprotein (P-gp) (P08183 whole entry): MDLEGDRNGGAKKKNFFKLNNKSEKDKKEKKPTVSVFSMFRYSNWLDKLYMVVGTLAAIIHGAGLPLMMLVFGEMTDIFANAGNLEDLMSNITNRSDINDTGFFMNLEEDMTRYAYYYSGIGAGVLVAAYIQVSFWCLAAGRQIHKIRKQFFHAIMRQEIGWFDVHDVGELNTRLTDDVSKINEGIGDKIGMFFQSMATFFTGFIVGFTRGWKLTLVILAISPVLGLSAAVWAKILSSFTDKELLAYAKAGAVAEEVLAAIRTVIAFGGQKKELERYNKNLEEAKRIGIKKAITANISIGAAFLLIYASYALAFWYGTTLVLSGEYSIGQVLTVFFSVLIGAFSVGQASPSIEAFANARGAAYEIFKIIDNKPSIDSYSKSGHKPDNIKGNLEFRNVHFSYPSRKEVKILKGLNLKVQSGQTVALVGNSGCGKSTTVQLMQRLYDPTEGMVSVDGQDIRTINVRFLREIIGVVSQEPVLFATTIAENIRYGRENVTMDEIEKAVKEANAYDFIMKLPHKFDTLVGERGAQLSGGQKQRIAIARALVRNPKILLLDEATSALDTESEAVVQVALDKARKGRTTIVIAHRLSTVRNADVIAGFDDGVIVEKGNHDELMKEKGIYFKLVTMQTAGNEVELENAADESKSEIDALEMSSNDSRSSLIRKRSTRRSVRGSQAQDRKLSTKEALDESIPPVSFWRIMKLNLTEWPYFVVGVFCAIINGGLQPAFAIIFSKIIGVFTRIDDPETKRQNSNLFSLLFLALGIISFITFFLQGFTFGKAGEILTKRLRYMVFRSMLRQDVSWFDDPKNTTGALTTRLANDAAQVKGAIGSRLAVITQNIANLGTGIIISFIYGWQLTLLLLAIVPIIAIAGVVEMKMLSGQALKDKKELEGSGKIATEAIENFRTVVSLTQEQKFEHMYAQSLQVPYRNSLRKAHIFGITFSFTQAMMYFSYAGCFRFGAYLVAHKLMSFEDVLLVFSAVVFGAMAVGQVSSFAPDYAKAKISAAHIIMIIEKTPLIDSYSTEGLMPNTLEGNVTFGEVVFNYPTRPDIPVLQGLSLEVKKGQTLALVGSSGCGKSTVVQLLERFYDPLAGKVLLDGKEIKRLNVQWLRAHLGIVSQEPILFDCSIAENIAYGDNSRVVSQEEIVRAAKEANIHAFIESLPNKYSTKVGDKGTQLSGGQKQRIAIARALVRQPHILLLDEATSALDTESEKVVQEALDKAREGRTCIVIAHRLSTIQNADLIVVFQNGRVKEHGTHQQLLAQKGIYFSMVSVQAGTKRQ

[4] = pIC50 calcd, predicted from the clogP/pIC50 correlation line (Figure 2)

Sequence of P-gp (P08183 whole entry): as above

Compound | LE (ligand efficiency) [1] | LipE (lipophilic efficiency) [1] | also measured
CCCNCC(O)COc1ccccc1C(=O)c1ccc(C)cc1 (centres unmarked) [Compound 20] | 0.35 kcal per heavy atom |  | 
CN(CCOc1ccc(NS(C)(=O)=O)cc1)CCc1ccc(NS(C)(=O)=O)cc1 [dofetilide] |  |  | potency values [2]: < 10 nM
O=C(c1ccccc1)c1ccccc1OCC(O)CN1CCCCC1 (centres unmarked) [Compound 12] | 0.33 kcal per heavy atom |  | 
COc1cc2c(cc1OC)CN(CCc1ccc(NC(=O)c3cc(OC)c(OC)cc3NC(=O)c3cnc4ccccc4c3)cc1)CC2 [Tariquidar] | 0.22 kcal per heavy atom | 1.93 | 
O=C(c1ccccc1)c1ccccc1OCC(O)CN1CCC(O)(c2ccccc2)CC1 (centres unmarked) [Compound 19] |  |  | IC50 [3, 4]: 1740 nM; factor more active than equilipophilic compound 20 ([3]; pairwise comparison of IC50, 19 vs 20): ~4 fold
CC(=O)c1cc(C)ccc1OCC(O)CN1CCN(CC(O)COc2ccccc2C(=O)c2ccccc2)CC1 (centres unmarked) [Compound 24, 1-[2-(3-{4-[3-(2-Benzoyl-phenoxy)-2-hydroxyl-propyl]-piperazine-1-yl}-2-hydroxy-propoxy)-5-methyl-phenyl]-ethanone] | 0.18 kcal per heavy atom |  | 
O=C(CCc1ccccc1)c1ccccc1OCC(O)CN1CCC(O)(c2ccccc2)CC1 (centres unmarked) [GPV062] | 0.30 kcal per heavy atom |  | 
O=C(c1ccccc1)c1ccccc1OCC(O)CN1CCN(CC(O)COc2ccccc2C(=O)c2ccccc2)CC1 (centres unmarked) [Compound 23] | 0.23 kcal per heavy atom |  | IC50 [3, 4]: 794 nM; IC50 ([3]; pIC50 obs, observed, daunorubicin efflux inhibition): 53.7 nM; more active than equilipophilic compound 21 ([3]; pairwise comparison of IC50, 23 vs 21): about 1 order of magnitude

The next lines start with results.

LE (ligand efficiency) [1] | LipE (lipophilic efficiency) [1] | Compound | also measured
0.33 kcal per heavy atom | 1.84 | O=C(CCc1ccccc1)c1ccccc1OCC(O)CN1CCCCC1 (centres unmarked) [GPV005] | 
0.29 kcal per heavy atom | 0.19 | CCOC/C=C/c1ccc(-c2nc(-c3ccc(NC(C)C)cc3)c(-c3ccc(NC(C)C)cc3)[nH]2)cc1 [ONT093] | 
